Measured values from patent US12643879B2, “Functionalized heterocyclic compounds as modulators of stimulator of interferon genes (STING)” (RYVU THERAPEUTICS S.A., priority 2019, dated 2026).
Read-outs that look alike come from different tables or passages of the source.

Key:
human STING = human STING (Homo sapiens, UniProt Q86WV6); experiment: Fluorescence Thermal Shift assay (binding to STING); conditions: STING 0.1 mg/mL, SyproOrange, 25 to 99° C.
Protocol: Compounds, constructs and conjugates of the present invention were tested for binding to human STING in Fluorescence Thermal Shift assay. STING was preincubated with the compounds for 20 minutes in 50 mM Hepes, 150 mM NaCl, pH 7.5 in 15 or 16 μl volume, following by adding 4 μl of SyproOrange dye dilution (ThermoFisher, cat no. S-6651). Final STING concentration was 0.1 mg/mL. Thermal unfolding was performed in Real-Time PCR QuantStudio 6 Flex System (Applied Biosystems), from 25 to 99° C., with continuous ramp mode and ramp rate 0.033° C./s. The data were analyzed using Protein Thermal Shift Software (ThermoFisher).

[1] = tested on: interferon regulatory factor (IRF) pathway in THP-1 dual cells; experiment: THP-1 Dual reporter assay, IRF pathway (luciferase); format: cell-based; conditions: for EC50: Homo sapiens, THP1-Dual, read-out: THP1 Dual EC50 (μM) IRF
How it was run: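 Readouts come from THP-1 dual cell supernatant taken 18 h after STING agonist addition. SEAP activity is developed in detection medium for 1–2 h at 37° C and read at 630/655 nm; luciferase is read by luminescence immediately after reagent addition.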

[2] = tested on: NF-κB pathway in THP-1 dual cells; experiment: THP-1 Dual reporter assay, NF-κB pathway (SEAP); format: cell-based; conditions: for EC50: Homo sapiens, THP1-Dual, read-out: THP1 Dual EC50 (μM) NFkB
How it was run: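 After 18 h exposure of THP-1 dual cells to the STING agonist compounds, culture medium was collected. Part was mixed with luminescence reagent and read at once for IRF-driven luciferase; another part was incubated with SEAP detection medium for 1 or 2 hours at 37° C before absorbance at 630 or 655 nm.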

[3] = 18 h stimulation, absorbance at 630 or 655 nm

Sequence of human STING (Q86WV6 whole entry H232R): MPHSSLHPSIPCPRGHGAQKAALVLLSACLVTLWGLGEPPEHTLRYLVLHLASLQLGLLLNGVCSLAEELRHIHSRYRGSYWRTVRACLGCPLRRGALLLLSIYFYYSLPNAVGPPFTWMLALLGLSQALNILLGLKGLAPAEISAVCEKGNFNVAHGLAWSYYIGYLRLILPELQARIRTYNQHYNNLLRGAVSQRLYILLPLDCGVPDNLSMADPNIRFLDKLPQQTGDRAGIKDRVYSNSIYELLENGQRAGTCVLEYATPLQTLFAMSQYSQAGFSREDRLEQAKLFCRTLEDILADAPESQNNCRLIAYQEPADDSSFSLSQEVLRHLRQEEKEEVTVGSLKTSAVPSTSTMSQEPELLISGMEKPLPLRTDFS

Row | Compound | hSTING FTS binding assay (ΔT C. °) (human STING) | EC50 ([1]; 18 h stimulation, luminescence) [µM] | EC50 [2, 3] [µM] | THP1 Dual EC50 (μM) IRF ([1]; 18 h stimulation, luminescence) | THP1 Dual EC50 (μM) NFkB [2, 3] | EC50 ([1]; 18 h) [µM] | EC50 ([2]; 18 h) [µM]
1 | Cc1ccc(N2CCC[C@H](N(Cc3ccnc(C)c3)Cc3cn(C4CC4)c4cc(N5CCC[C@@H](O)C5)c(F)cc4c3=O)C2)cn1.Cl [Example 28, 1-cyclopropyl-6-fluoro-7-[(3R)-3-hydroxypiperidin-1-yl]-3-({[(3S)-1-(6-methylpyridin-3-yl)piperidin-3-yl][(2-methylpyridin-4-yl)methyl]amino}methyl)-1,4-dihydroquinolin-4-one hydrochloride] | +++ (+++=ΔTm ≥20° C.) | < 1 | < 1 |  |  |  | 
2 | CN[C@H]1CCN(c2cc3c(cc2F)c(=O)c(CN(Cc2ccnc(C)c2)[C@H]2CCCN(c4ccc(C)nc4)C2)cn3C2CC2)C1.Cl [Example 58, 1-cyclopropyl-6-fluoro-7-[(3S)-3-(methylamino)pyrrolidin-1-yl]-3-({[(3S)-1-(6-methylpyridin-3-yl)piperidin-3-yl][(2-methylpyridin-4-yl)methyl]amino}methyl)-1,4-dihydroquinolin-4-one hydrochloride] | +++ (+++=ΔTm ≥20° C.) | < 1 | < 1 |  |  |  | 
3 | Cc1ccc(N2CCC[C@H](N(Cc3ccnc(C)c3)Cc3cn(C4CC4)c4cc(N5CCC(F)(CN)C5)c(F)cc4c3=O)C2)cn1 (stereo partly drawn) [Example 30, 7-[3-(aminomethyl)-3-fluoropyrrolidin-1-yl]-1-cyclopropyl-6-fluoro-3-({[(3S)-1-(6-methylpyridin-3-yl)piperidin-3-yl][(2-methylpyridin-4-yl)methyl]amino}methyl)-1,4-dihydroquinolin-4-one] | +++ (+++=ΔTm ≥20° C.) | < 1 | < 1 |  |  |  | 
4 | Cc1ccc(N2CCC[C@H](N(Cc3ccnc(C)c3)Cc3cn(C4CC4)c4cc(N5CC[C@H](N)C5)c(F)cc4c3=O)C2)cn1.Cl [Example 13, 7-[(3S)-3-Aminopyrrolidin-1-yl]-1-cyclopropyl-6-fluoro-3-({[(3S)-1-(6-methylpyridin-3-yl)piperidin-3-yl][(2-methylpyridin-4-yl)methyl]amino}methyl)-1,4-dihydroquinolin-4-one hydrochloride] | +++ (+++=ΔTm ≥20° C.) | < 1 | < 1 |  |  |  | 
5 | Cc1ccc(N2CCC[C@H](N(Cc3ccnc(C)c3)Cc3cn(C4CC4)c4cc(OCCO)c(F)cc4c3=O)C2)cn1 [Example 47, 1-Cyclopropyl-6-fluoro-7-(2-hydroxyethoxy)-3-({[(3S)-1-(6-methylpyridin-3-yl)piperidin-3-yl][(2-methylpyridin-4-yl)methyl]amino}methyl)-1,4-dihydroquinolin-4-one] | +++ (+++=ΔTm ≥20° C.) |  |  | + + + | + + + |  | 
6 | COCCn1cc(CN(Cc2ccnc(C)c2)[C@H]2CCCN(c3ccc(N)nc3)C2)c(=O)c2ccccc21.Cl [Example 21, 3-({[(3S)-1-(6-aminopyridin-3-yl)piperidin-3-yl][(2-methylpyridin-4-yl)methyl]amino}methyl)-1-(2-methoxyethyl)-1,4-dihydroquinolin-4-one hydrochloride] | +++ (+++=ΔTm ≥20° C.) | < 1 | < 1 |  |  |  | 
7 | Cc1ccc(N2CCC[C@H](N(Cc3ccnc(C)c3)Cc3cn(C4CC4)c4cc(N5CCC(C(=O)O)CC5)c(F)cc4c3=O)C2)cn1 [Example 67, 1-[1-cyclopropyl-6-fluoro-3-({[(3S)-1-(6-methylpyridin-3-yl)piperidin-3-yl][(2-methylpyridin-4-yl)methyl]amino}methyl)-4-oxo-1,4-dihydroquinolin-7-yl]piperidine-4-carboxylic acid] | +++ (+++=ΔTm ≥20° C.) | 1 to 10 | 1 to 10 |  |  |  | 
8 | Cc1cc(CN(Cc2cn(C)c3cc(N4CCC(C(=O)O)CC4)ccc3c2=O)[C@H]2CCCN(c3cccnc3)C2)ccn1 [Example 46, 1-[1-methyl-3-({[(2-methylpyridin-4-yl)methyl][(3S)-1-(pyridin-3-yl)piperidin-3-yl]amino}methyl)-4-oxo-1,4-dihydroquinolin-7-yl]piperidine-4-carboxylic acid] | ++ (++=10<ΔTm <20° C.) |  |  |  |  | > 10 | > 10

Further lines, with some results ahead:

Row | hSTING FTS binding assay (ΔT C. °) (human STING) | EC50 ([1]; 18 h stimulation, luminescence) [µM] | EC50 [2, 3] [µM] | THP1 Dual EC50 (μM) IRF ([1]; 18 h stimulation, luminescence) | THP1 Dual EC50 (μM) NFkB [2, 3] | Compound | EC50 ([1]; 18 h) [µM] | EC50 ([2]; 18 h) [µM]
9 | +++ (+++=ΔTm ≥20° C.) | < 1 | < 1 |  |  | Cc1cc(CN(Cc2cn(C3CC3)c3cc(N4CC[C@@H](O)C4)c(F)cc3c2=O)[C@H]2CCCN(c3cccnc3)C2)ccn1 [Example 78, 1-Cyclopropyl-6-fluoro-7-[(3R)-3-hydroxypyrrolidin-1-yl]-3-({[(2-methylpyridin-4-yl)methyl][(3S)-1-(pyridin-3-yl)piperidin-3-yl]amino}methyl)-1,4-dihydroquinolin-4-one] |  | 
10 | + (+=ΔTm ≤10° C.) | 1 to 10 | 1 to 10 |  |  | Cc1cc(CN(Cc2cn(C)c3ccccc3c2=O)[C@H]2CCCN(c3cccc(N)c3)C2)ccn1.Cl [Example 1, 3-({[(3S)-1-(3-Aminophenyl)piperidin-3-yl][(2-methylpyridin-4-yl)methyl]amino}methyl)-1-methyl-1,4-dihydroquinolin-4-one hydrochloride] |  | 
11 | +++ (+++=ΔTm ≥20° C.) | < 1 | < 1 |  |  | Cc1cc(CN(Cc2cn(C3CC3)c3cc(N4CCC[C@H](O)C4)c(F)cc3c2=O)[C@H]2CCCN(c3cccnc3)C2)ccn1.Cl [Example 86, 1-cyclopropyl-6-fluoro-7-[(3S)-3-hydroxypiperidin-1-yl]-3-({[(2-methylpyridin-4-yl)methyl][(3S)-1-(pyridin-3-yl)piperidin-3-yl]amino}methyl)-1,4-dihydroquinolin-4-one hydrochloride] |  | 
12 | +++ (+++=ΔTm ≥20° C.) | < 1 | < 1 |  |  | Cc1ccc(N2CCC[C@H](N(Cc3ccnc(C)c3)Cc3cn(C4CC4)c4cc(N5CCC(N)C(F)(F)C5)c(F)cc4c3=O)C2)cn1 (stereo partly drawn) [Example 26, 7-(4-amino-3,3-difluoropiperidin-1-yl)-1-cyclopropyl-6-fluoro-3-({[(3S)-1-(6-methylpyridin-3-yl)piperidin-3-yl][(2-methylpyridin-4-yl)methyl]amino}methyl)-1,4-dihydroquinolin-4-one] |  | 
13 | + (+=ΔTm ≤10° C.) | < 1 | 1 to 10 |  |  | Cc1cc(CN(Cc2cn(C)c3ccccc3c2=O)[C@H]2CCCN(c3ccc(CN)nc3)C2)ccn1.Cl [Example 3, 3-({[(3S)-1-[6-(Aminomethyl)pyridin-3-yl]piperidin-3-yl][(2-methylpyridin-4-yl)methyl]amino}methyl)-1-methyl-1,4-dihydroquinolin-4-one hydrochloride] |  | 
14 | +++ (+++=ΔTm ≥20° C.) | < 1 | < 1 |  |  | Cc1ccc(N2CCC[C@H](N(Cc3ccnc(C)c3)Cc3cn(C4CC4)c4cc(N5CC[C@@H](N)C5)c(F)cc4c3=O)C2)cn1.Cl [Example 12, 7-[(3R)-3-Aminopyrrolidin-1-yl]-1-cyclopropyl-6-fluoro-3-({[(3S)-1-(6-methylpyridin-3-yl)piperidin-3-yl][(2-methylpyridin-4-yl)methyl]amino}methyl)-1,4-dihydroquinolin-4-one hydrochloride] |  | 
15 | +++ (+++=ΔTm ≥20° C.) | < 1 | < 1 |  |  | Cc1ccc(N2CCC[C@H](N(Cc3ccnc(C)c3)Cc3cn(C4CC4)c4cc(N5CCC[C@H](N)C5)c(F)cc4c3=O)C2)cn1 [Example 16, 7-[(3S)-3-Aminopiperidin-1-yl]-1-cyclopropyl-6-fluoro-3-({[(3S)-1-(6-methylpyridin-3-yl)piperidin-3-yl][(2-methylpyridin-4-yl)methyl]amino}methyl)-1,4-dihydroquinolin-4-one] |  | 
16 | +++ (+++=ΔTm ≥20° C.) | < 1 | < 1 |  |  | CNC1CCN(c2cc3c(cc2F)c(=O)c(CN(Cc2ccnc(C)c2)[C@H]2CCCN(c4ccc(C)nc4)C2)cn3C2CC2)C1 (stereo partly drawn) [Example 33, 1-cyclopropyl-6-fluoro-7-[3-(methylamino)pyrrolidin-1-yl]-3-({[(3S)-1-(6-methylpyridin-3-yl)piperidin-3-yl][(2-methylpyridin-4-yl)methyl]amino}methyl)-1,4-dihydroquinolin-4-one] |  | 
17 | +++ (+++=ΔTm ≥20° C.) | < 1 | < 1 |  |  | CNC1CCN(c2cc3c(cc2F)c(=O)c(CN(Cc2ccnc(C)c2)[C@H]2CCCN(c4ccc(C)nc4)C2)cn3C2CC2)CC1.Cl [Example 19, 1-cyclopropyl-6-fluoro-7-[4-(methylamino)piperidin-1-yl]-3-({[(3S)-1-(6-methylpyridin-3-yl)piperidin-3-yl][(2-methylpyridin-4-yl)methyl]amino}methyl)-1,4-dihydroquinolin-4-one hydrochloride] |  | 
